Measured values taken from US12239643B2, “Therapeutic agent for inflammatory diseases, autoimmune diseases, fibrotic diseases, and cancer diseases” (MEIJI SEIKA PHARMA CO., LTD., priority 2018, dated 2025).

Key:
PDE4 = experiment: Evaluation of PDE4 inhibitory activity, scintillation proximity assay; type: biochemical; settings: scintillation proximity assay; read-out: PDE4 Inhibitory Activity (Evaluation 1; concentration for the inhibition rate of 50%)
Outline: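 IC50 was derived from inhibition curves, referenced to an enzyme-free blank and a DMSO-only control. Compound, PDE4 preparation and tritiated cAMP reacted 120 min at RT in Tris-HCl buffer (pH 7.4) with MgCl2, EGTA and BSA; YSi-SPA beads with ZnSO4 bound product before scintillation counting.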

[1] = Hepatic metabolic stability (rat liver microsome method); type: in vitro ADME; settings: rat liver microsomes 0.5 mg/mL, test substance 1 μM, NADPH 1 mM, 37° C., 30 minutes
Method: Metabolic stability in rat liver microsomes was evaluated by the following method. First, in 100 mM of potassium phosphate buffer solution (pH 7.4), liver microsomes (concentration at reaction: 0.5 mg/mL) and the test substance (concentration at reaction: 1 μM) were preincubated at 37° C. Five minutes later, 100 mM of potassium phosphate buffer (pH 7.4) solution of NADPH (concentration at reaction: 1 mM) was mixed thereto to start the reaction. After a predetermined time passed, acetonitrile was mixed to the reaction mixture to stop the reaction. Here, the reaction time was 0 and 30 minutes, and drug concentration measurement was performed for each time period using LC-MS. The % remaining value of the test compound was calculated from the value for 0 minutes and the value for 30 minutes, using the calculation formula below: % Remaining=(Value for 30 Minutes/Value for 0 Minutes)×100
The results of measuring the rat liver microsome metabolic Stability (% remaining for 30-minute reaction) for the test compound by the above method were evaluated in accordance with the following evaluated basis; A: a % remaining rate of 75% or more, B: 60% or more and less than 75%, C: 45% or more and less than 60%, and D: less than 45%.

| Compound | IC50 (PDE4) [µM] | Residual ratio (% remaining for 30-minute reaction) [1] |
| --- | --- | --- |
| FC(F)(F)Oc1ccc(Oc2ccc(-c3nccs3)c3oc(N4CC5CC(C4)N5)nc23)nc1 [Example 343, 2-(3,6-Diazabicyclo[3.1.1]heptan-3-yl)-7-(thiazol-2-yl)-4-((5-(trifluoromethoxy)pyridin-2-yl)oxy)benzo[d]oxazole] | < 0.1 | B (B: 60% or more and less than 75%) |
| C[S+]([O-])c1ccc(-c2nccs2)c2oc(N3CC4CC(C3)N4)nc12 (centres unmarked) [Example 346, 2-(3,6-Diazabicyclo[3.1.1]heptan-3-yl)-4-(methylsulfinyl)-7-(thiazol-2-yl)benzo[d]oxazole] | < 0.1 | A (A: a % remaining rate of 75% or more) |
| CS(=O)(=O)c1ccc(-c2nccs2)c2oc(N3CC4CC(C3)N4)nc12 [Example 347, 2-(3,6-Diazabicyclo[3.1.1]heptan-3-yl)-4-(methylsulfonyl)-7-(thiazol-2-yl)benzo[d]oxazole] | < 0.1 | A (A: a % remaining rate of 75% or more) |
| OCCSc1ccc(-c2nccs2)c2oc(N3CC4CC(C3)N4)nc12 [Example 348, 2-((2-(3,6-Diazabicyclo[3.1.1]heptan-3-yl)-7-(thiazol-2-yl)benzo[d]oxazol-4-yl)thio)ethan-1-ol] | < 0.1 | B (B: 60% or more and less than 75%) |
| [O-][S+](CCO)c1ccc(-c2nccs2)c2oc(N3CC4CC(C3)N4)nc12 (centres unmarked) [Example 349, 2-((2-(3,6-Diazabicyclo[3.1.1]heptan-3-yl)-7-(thiazol-2-yl)benzo[d]oxazol-4-yl)sulfinyl)ethan-1-ol] | < 0.1 | A (A: a % remaining rate of 75% or more) |
| O=S(=O)(CCO)c1ccc(-c2nccs2)c2oc(N3CC4CC(C3)N4)nc12 [Example 350, 2-((2-(3,6-Diazabicyclo[3.1.1]heptan-3-yl)-7-(thiazol-2-yl)benzo[d]oxazol-4-yl)sulfonyl)ethan-1-ol] | < 0.1 | A (A: a % remaining rate of 75% or more) |
| CS(=O)(=O)c1ccc(Oc2ccc(-c3nccs3)c3oc(N4CC5CC(C4)N5)nc23)nc1 [Example 352, 2-(3,6-Diazabicyclo[3.1.1]heptan-3-yl)-4-((5-(methylsulfonyl)pyridin-2-yl)oxy)-7-(thiazol-2-yl)benzo[d]oxazole] | < 0.1 | A (A: a % remaining rate of 75% or more) |
| COCCNC(=O)c1ccc(-c2nccs2)c2oc(N3CC4CC(C3)N4)nc12 [Example 353, 2-(3,6-Diazabicyclo[3.1.1]heptan-3-yl)-N-(2-methoxyethyl)-7-(thiazol-2-yl)benzo[d]oxazole-4-carboxamide] | < 0.1 | A (A: a % remaining rate of 75% or more) |
| NC(=O)c1ccc(-c2nccs2)c2oc(N3CC4CC(C3)N4)nc12 [Example 354, 2-(3,6-Diazabicyclo[3.1.1]heptan-3-yl)-7-(thiazol-2-yl)benzo[d]oxazole-4-carboxamide] | < 0.1 | A (A: a % remaining rate of 75% or more) |
| O=C(NCCO)c1ccc(-c2nccs2)c2oc(N3CC4CC(C3)N4)nc12 [Example 355, 2-(3,6-Diazabicyclo[3.1.1]heptan-3-yl)-N-(2-hydroxyethyl)-7-(thiazol-2-yl)benzo[d]oxazole-4-carboxamide] | < 0.1 | A (A: a % remaining rate of 75% or more) |
| CN(CCO)C(=O)c1ccc(-c2nccs2)c2oc(N3CC4CC(C3)N4)nc12 [Example 356, 2-(3,6-Diazabicyclo[3.1.1]heptan-3-yl)-N-(2-hydroxyethyl)-N-methyl-7-(thiazol-2-yl)benzo[d]oxazole-4-carboxamide] | 0.1 to 1 | A (A: a % remaining rate of 75% or more) |
| O=C(NC1CC1)c1ccc(-c2nccs2)c2oc(N3CC4CC(C3)N4)nc12 [Example 357, 2-(3,6-Diazabicyclo[3.1.1]heptan-3-yl)-N-cyclopropyl-7-(thiazol-2-yl)benzo[d]oxazole-4-carboxamide] | < 0.1 | A (A: a % remaining rate of 75% or more) |
| CCNC(=O)c1ccc(-c2nccs2)c2oc(N3CC4CC(C3)N4)nc12 [Example 358, 2-(3,6-Diazabicyclo[3.1.1]heptan-3-yl)-N-ethyl-7-(thiazol-2-yl)benzo[d]oxazole-4-carboxamide] | < 0.1 | A (A: a % remaining rate of 75% or more) |
| O=C(c1ccc(-c2nccs2)c2oc(N3CC4CC(C3)N4)nc12)N1CCOCC1 [Example 359, (2-(3,6-Diazabicyclo[3.1.1]heptan-3-yl)-7-(thiazol-2-yl)benzo[d]oxazol-4-yl) (morpholino)methanone] | 0.1 to 1 | A (A: a % remaining rate of 75% or more) |
| O=C(c1ccc(-c2nccs2)c2oc(N3CC4CC(C3)N4)nc12)N1CCCC1 [Example 360, (2-(3,6-Diazabicyclo[3.1.1]heptan-3-yl)-7-(thiazol-2-yl)benzo[d]oxazol-4-yl) (pyrrolidin-1-yl)methanone] | 0.1 to 1 | A (A: a % remaining rate of 75% or more) |
| CC(C)(O)C(F)(F)Oc1ccc(-c2ccc(Cl)cn2)c2oc(N3CC4CC(C3)N4)nc12 [Example 363, 1-((2-(3,6-Diazabicyclo[3.1.1]heptan-3-yl)-7-(5-chloropyridin-2-yl)benzo[d]oxazol-4-yl)oxy)-1,1-difluoro-2-methylpropan-2-ol] | < 0.1 | A (A: a % remaining rate of 75% or more) |
| c1csc(-c2ccc(N3CCOCC3)c3nc(N4CC5CC(C4)N5)oc23)n1 [Example 369, 2-(3,6-Diazabicyclo[3.1.1]heptan-3-yl)-4-morpholino-7-(thiazol-2-yl)benzo[d]oxazole] | < 0.1 | B (B: 60% or more and less than 75%) |
| OCC(O)C(F)(F)Oc1ccc(-c2nccs2)c2oc(N3CC4CC(C3)N4)nc12 (centres unmarked) [Example 370, 3-((2-(3,6-Diazabicyclo[3.1.1]heptan-3-yl)-7-(thiazol-2-yl)benzo[d]oxazol-4-yl)oxy)-3,3-difluoropropane-1,2-diol] | < 0.1 | A (A: a % remaining rate of 75% or more) |
| OCC(F)(F)Oc1ccc(-c2nccs2)c2oc(N3CC4CC(C3)N4O)nc12 [Example 374, 3-(4-(1,1-Difluoro-2-hydroxyethoxy)-7-(thiazol-2-yl)benzo[d]oxazol-2-yl)-3,6-diazabicyclo[3.1.1]heptan-6-ol] | < 0.1 | B (B: 60% or more and less than 75%) |
| OCc1cccnc1Oc1ccc(-c2nccs2)c2oc(N3CC4CC(C3)N4)nc12 [Example 376, (2-((2-(3,6-Diazabicyclo[3.1.1]heptan-3-yl)-7-(thiazol-2-yl)benzo[d]oxazol-4-yl)oxy)pyridin-3-yl)methanol] | < 0.1 | A (A: a % remaining rate of 75% or more) |
| c1cc(-c2nccs2)c2oc(N3CC4CC(C3)N4)nc2c1 [Example 382, 2-(3,6-Diazabicyclo[3.1.1]heptan-3-yl)-7-(thiazol-2-yl)benzo[d]oxazole] | < 0.1 | B (B: 60% or more and less than 75%) |
| O=S(=O)(NCCO)c1ccc(-c2nccs2)c2oc(N3CC4CC(C3)N4)nc12 [Example 385, 2-(3,6-Diazabicyclo[3.1.1]heptan-3-yl)-N-(2-hydroxyethyl)-7-(thiazol-2-yl)benzo[d]oxazole-4-sulfonamide] | < 0.1 | A (A: a % remaining rate of 75% or more) |
| COCCNS(=O)(=O)c1ccc(-c2nccs2)c2oc(N3CC4CC(C3)N4)nc12 [Example 387, 2-(3,6-Diazabicyclo[3.1.1]heptan-3-yl)-N-(2-methoxyethyl)-7-(thiazol-2-yl)benzo[d]oxazole-4-sulfonamide] | < 0.1 | A (A: a % remaining rate of 75% or more) |
| O=S(=O)(c1ccc(-c2nccs2)c2oc(N3CC4CC(C3)N4)nc12)N1CCOCC1 [Example 391, 2-(3,6-Diazabicyclo[3.1.1]heptan-3-yl)-4-(morpholinosulfonyl)-7-(thiazol-2-yl)benzo[d]oxazole] | < 0.1 | B (B: 60% or more and less than 75%) |
| COCC(F)(F)Oc1ccc(-c2nccs2)c2oc(N3CC4CC(C3)N4)nc12 [Example 392, 2-(3,6-Diazabicyclo[3.1.1]heptan-3-yl)-4-(1,1-difluoro-2-methoxyethoxy)-7-(thiazol-2-yl)benzo[d]oxazole] | < 0.1 | B (B: 60% or more and less than 75%) |
